Results from ChEMBL document CHEMBL4043238, “Discovery of N-substituted 7-azaindoles as Pan-PIM kinase inhibitors - Lead series identification - Part II” (Bioorg Med Chem Lett, 2017).
Converted amounts (≈) assume the structure as drawn. Each block holds one compound with its values, some of them ahead of it.

Legend:
[1] = target: Serine/threonine-protein kinase pim-2 (Homo sapiens, UniProt Q9P1W9); assay: Inhibition of PIM2 (unknown origin) assessed as reduction in BAD phosphorylation at Ser112 residues by TR-FRET assay
[2] = target: T1, Serine/threonine-protein kinase pim-1 (Homo sapiens, UniProt P11309); assay: Inhibition of PIM1 (unknown origin) assessed as reduction in BAD phosphorylation at Ser112 residues by TR-FRET assay
[3] = target: Serine/threonine-protein kinase pim-3 (Homo sapiens, UniProt Q86V86); assay: Inhibition of PIM3 (unknown origin) assessed as reduction in BAD phosphorylation at Ser112 residues by TR-FRET assay
[4] = AUC (0 to infinity) in rat at 10 mg/kg, po administered as single dose; assay type: ADME, organism-based; set-up: dose 10 mg/kg, time infinity, route oral; settings: in vivo
[5] = Protein binding in mouse plasma; assay type: ADME, cell-free; settings: read-out: PPB
[6] = Plasma concentration in SCID mouse xenografted with human KG1 cells at 25 mg/kg, po administered as single dose measured at 24 hrs; assay type: ADME, organism-based
[7] = Clearance in rat at 3 mg/kg, iv administered as single dose; assay type: ADME, organism-based; settings: in vivo
[8] = Cmax in rat at 10 mg/kg, po administered as single dose; assay type: ADME, organism-based; set-up: dose 10 mg/kg, route oral; settings: in vivo
[9] = target: T1, Serine/threonine-protein kinase pim-1; assay: Inhibition of PIM1 in human KG1 cells assessed as reduction in BAD phosphorylation; assay type: cell-based
Cytochrome P450 3A4 [10] = target: T2, Cytochrome P450 3A4 (Homo sapiens, UniProt P08684); assay: Inhibition of CYP3A4 (unknown origin) using testosterone as substrate; assay type: ADME
Mus musculus [11] = assay: In vivo inhibition of PIM1 in SCID mouse xenografted with human KG1 cells assessed as reduction in BAD phosphorylation at 25 mg/kg, po administered as single dose measured at 24 hrs relative to control; assay type: functional; settings: KG-1, po
[12] = Permeability from apical to basolateral side in human Caco2/TC7 cells at 5 uM; assay type: ADME, cell-based; settings: Caco-2, read-out: permeability
[13] = Protein binding in rat plasma; assay type: ADME, cell-free; settings: read-out: PPB
KG-1 = assay: Antiproliferative activity against human KG1 cells; assay type: functional, cell-based
Liver [14] = assay: Stability in rat liver microsomes; assay type: ADME, microsome
Mus musculus [15] = assay: In vivo inhibition of PIM1 in SCID mouse xenografted with human KG1 cells assessed as reduction in BAD phosphorylation at 25 mg/kg, po administered as single dose measured at 8 hrs relative to control; assay type: functional; settings: KG-1, po
[16] = Drug uptake in tumor of SCID mouse xenografted with human KG1 cells at 25 mg/kg, po administered as single dose measured at 24 hrs; assay type: ADME, organism-based, Neoplasm; settings: read-out: Drug uptake
[17] = AUC (0 to infinity) in rat at 3 mg/kg, iv administered as single dose; assay type: ADME, organism-based; set-up: dose 3 mg/kg, route intravenous, time infinity; settings: in vivo
Cytochrome P450 3A4 [18] = target: T2, Cytochrome P450 3A4; assay: Inhibition of CYP3A4 (unknown origin) using midazolam as substrate; assay type: ADME
[19] = Thermodynamic solubility of the compound at pH 7.4; assay type: physicochemical; settings: buffer, read-out: Therm_solubility
Liver [20] = assay: Stability in mouse liver microsomes; assay type: ADME, microsome
[21] = Plasma concentration in SCID mouse xenografted with human KG1 cells at 25 mg/kg, po administered as single dose measured at 8 hrs; assay type: ADME, organism-based
Liver [22] = assay: Stability in human liver microsomes; assay type: ADME, microsome
[23] = Protein binding in human plasma; assay type: ADME, cell-free; settings: read-out: PPB
[24] = target: Voltage-gated inwardly rectifying potassium channel KCNH2 (Homo sapiens, UniProt Q12809); assay: Inhibition of human ERG by patch clamp assay
[25] = Volume of distribution at steady state in rat at 3 mg/kg, iv administered as single dose; assay type: ADME, organism-based; settings: in vivo, read-out: Vdss
[26] = Drug uptake in tumor of SCID mouse xenografted with human KG1 cells at 25 mg/kg, po administered as single dose measured at 8 hrs; assay type: ADME, organism-based, Neoplasm; settings: read-out: Drug uptake
[27] = Half life in rat at 3 mg/kg, iv administered as single dose; assay type: ADME, organism-based; settings: in vivo
[28] = Cmax in mouse at 3 mg/kg, iv or 10 mg/kg, po administered as single dose; assay type: ADME, organism-based; settings: in vivo
[29] = (§1) Oral bioavailability in mouse at 10 mg/kg administered as single dose; assay type: ADME, organism-based; settings: in vivo
[30] = Clearance in mouse at 3 mg/kg, iv administered as single dose; assay type: ADME, organism-based; settings: in vivo
[31] = Half life in mouse at 10 mg/kg, po administered as single dose; assay type: ADME, organism-based; settings: in vivo
[32] = Clearance in human liver microsomes assessed as compound extraction at 5 uM; assay type: ADME, microsome; settings: read-out: CLH
[33] = Half life in mouse at 3 mg/kg, iv administered as single dose; assay type: ADME, organism-based; settings: in vivo
[34] = Volume of distribution at steady state in mouse at 3 mg/kg, iv administered as single dose; assay type: ADME, organism-based; settings: in vivo, read-out: Vdss
Mus musculus [35] = assay: Clearance in mouse at 3 mg/kg, iv administered as single dose relative to hepatic blood flow; assay type: ADME, organism-based; settings: in vivo
[36] = AUC (0 to infinity) in mouse at 10 mg/kg, po administered as single dose; assay type: ADME, organism-based; set-up: dose 10 mg/kg, route oral, time infinity; settings: in vivo
Mus musculus [37] = assay: as §1; assay type: ADME, organism-based; settings: in vivo
[38] = Inhibition of CYP450 (unknown origin); assay type: ADME; settings: human
[39] = Induction of CYP450 (unknown origin); assay type: ADME; settings: human

IC50 [1]: 57 nM | IC50 [2]: 8 nM
Compound: COC/C=C/c1c(Cl)c2c(Cl)cc(C(N)=O)nc2n1C1CCCNC1 (stereo not given)

IC50 [1]: 7410 nM | IC50 [3]: 480 nM | IC50 [2]: 125 nM
Compound: CCN(CC)CCn1c(I)c(Cl)c2c(Cl)cc(C(N)=O)nc21

IC50 [3]: 5620 nM | IC50 [2]: 720 nM
Compound: NC(=O)c1cc(Cl)c2c(Cl)c(I)n(Cc3ccncc3)c2n1

IC50 [1]: 16 nM | IC50 [2]: 1 nM
Compound: Cn1cc(-c2c(Cl)c3c(Cl)cc(C(N)=O)nc3n2C2CCCNC2)cn1 (stereo not given)

AUC(0-inf) [4]: 7450 ng·h/mL | fraction unbound [5]: 0.01 | concentration at 24 h [6]: 8.21 µM | clearance [7]: 18.3 mL/min/kg | Cmax [8]: 390 ng/mL | IC50 [9]: 43 nM | IC50 [1]: 6 nM | IC50 (Cytochrome P450 3A4 [10]): 21000 nM | Papp A→B at 5 µM [12]: 3.8 ×10⁻⁶ cm/s | fraction unbound [13]: 0.01 | Stability (Liver [14]): 6% | concentration at 24 h [16]: 99 µM | AUC(0-inf) [17]: 2620 ng·h/mL | IC50 (Cytochrome P450 3A4 [18]): > 30000 nM | solubility thermodynamic [19]: 225 µM (≈ 79.5 µg/mL) | Stability (Liver [20]): 10% | IC50 [2]: 1 nM | concentration at 8 h [21]: 18.9 µM | Stability (Liver [22]): 1% | fraction unbound [23]: 0.01 | Vd [25]: 20.9 L/kg | concentration at 8 h [26]: 101 µM | half-life [27]: 13.6 h
Compound: NC(=O)c1cc(Cl)c2c(Cl)c(C3CC3)n([C@H]3CCCNC3)c2n1
inhibition in vivo at 25 mg/kg (Mus musculus [11]): 61% | IC50 (KG-1): 62 nM | inhibition in vivo at 25 mg/kg (Mus musculus [15]): 60 to 65% | IC50 [24]: 2900 nM

IC50 [1]: 640 nM | IC50 [3]: 69 nM | IC50 [2]: 31 nM
Compound: Cn1c(I)c(Cl)c2c(Cl)cc(C(N)=O)nc21

IC50 [1]: 135 nM | IC50 [2]: 31 nM
Compound: NC(=O)c1cc(Cl)c2c(Cl)c(C3CCCO3)n(C3CCCNC3)c2n1 (stereo not given)

IC50 [1]: 23 nM | IC50 [3]: 1 nM | IC50 [2]: 1 nM
Compound: NC(=O)c1cc(Cl)c2c(Cl)c(I)n(CC3CCNC3)c2n1 (racemic)

Compound: NC(=O)c1cc(Cl)c2c(Cl)c(C#CC3CC3)n(C3CCCNC3)c2n1 (racemic)
IC50 [9]: 75 nM | IC50 [1]: 6 nM | Cmax [28]: 958 ng/mL | bioavailability [29]: 97% | Papp A→B at 5 µM [12]: 3 ×10⁻⁶ cm/s | clearance [30]: 65 mL/min/kg | half-life [31]: 3.3 h | IC50 (KG-1): 167 nM | hepatic extraction ratio at 5 µM [32]: 0.21 | solubility thermodynamic [19]: 13 µM (≈ 4.9 µg/mL) | half-life [33]: 2.6 h | Vd [34]: 11 L/kg | IC50 [2]: 0.7 nM | CL (Mus musculus [35]): > 75% | AUC(0-inf) [36]: 2500 ng·h/mL | IC50 [24]: 1000 nM

IC50 [1]: 109 nM | IC50 [2]: 13 nM
Compound: NC(=O)c1cc(Cl)c2c(Cl)c(-c3ccccc3)n(C3CCCNC3)c2n1 (stereo not given)

IC50 [1]: 1950 nM | IC50 [2]: 37 nM
Compound: Cc1c(-c2ccc(N3CCN(C)CC3)cc2)n(C)c2nc(C(N)=O)cc(Cl)c12

IC50 [9]: 115 nM | IC50 [1]: 13 nM | Cmax [28]: 292 ng/mL | F (Mus musculus [37]): 155% | inhibition (INH) [38]: Not Active | Papp A→B at 5 µM [12]: 1.9 ×10⁻⁶ cm/s | clearance [30]: 18.3 mL/min/kg | half-life [31]: 8.9 h | hepatic extraction ratio at 5 µM [32]: 0.02 | solubility thermodynamic [19]: 0.4 µM (≈ 0.141 µg/mL) | half-life [33]: 3.1 h | Vd [34]: 4.6 L/kg | Activity [39]: Not Active | IC50 [2]: 1 nM | AUC(0-inf) [36]: 13700 ng·h/mL
Compound: NC(=O)c1cc(Cl)c2c(Cl)c(C3CC3)n(C3CCCNC3)c2n1 (racemic)
IC50 (KG-1): 310 nM | IC50 [24]: 2900 nM

Compound: NC(=O)c1cc(Cl)c2c(Cl)c(I)n(C3CN4CCC3CC4)c2n1 (racemic)
IC50 [1]: 99 nM | IC50 [3]: 27 nM | IC50 [2]: 6 nM

IC50 [1]: 6 nM | IC50 [3]: 3 nM | IC50 [2]: 1 nM
Compound: NC(=O)c1cc(Cl)c2c(Cl)c(I)n(C3CCC(N)CC3)c2n1 (stereo not given)

IC50 [1]: 34 nM | IC50 [3]: 6 nM | IC50 [2]: 2 nM
Compound: CN1CCC(n2c(I)c(Cl)c3c(Cl)cc(C(N)=O)nc32)CC1

IC50 [1]: 24 nM | IC50 [2]: 4 nM
Compound: CC(C)=Cc1c(Cl)c2c(Cl)cc(C(N)=O)nc2n1C1CCCNC1 (stereo not given)

IC50 [1]: 10 nM | IC50 [3]: 2 nM | IC50 [2]: 1 nM
Compound: NC(=O)c1cc(Cl)c2c(Cl)c(I)n(C3CCCC(N)C3)c2n1 (racemic)
